Assay results taken from ChEMBL document CHEMBL1136447, “Biological investigation and structure-activity relationship studies on azadirone from Azadirachta indica A. Juss” (2003).

How the values were obtained:
[1] = system: M14; test: In vitro cytotoxic activity against Melanoma (M14) cell line at a concentration of 10e-5 M; format: functional, Homo sapiens
[2] = system: U-251; test: In vitro cytotoxic activity against CNS(U251) cell line at a concentration of 10e-5 M; format: functional, Homo sapiens
[3] = system: SK-OV-3; test: In vitro cytotoxic activity against Ovarian (SK-OV3) cell line at a concentration of 10e-5 M; format: functional, Homo sapiens
[4] = system: SW-620; test: In vitro cytotoxic activity against colon (SW620) cell line at a concentration of 10e-5 M; format: functional, Homo sapiens
[5] = system: DU-145; test: In vitro cytotoxic activity against prostate (DU145) cell line at a concentration of 10e-5 M; format: functional, Homo sapiens
[6] = system: MCF7; test: In vitro cytotoxic activity against breast (MCF-7/ADR) cell line at a concentration of 10e-5 M; format: functional, Homo sapiens
[7] = system: NCI-H522; test: In vitro cytotoxicity against H522 (human adenocarcinoma) cell line at a concentration of 10e-5 M.
[8] = system: A498; test: In vitro cytotoxic activity against renal (A498) cell line at a concentration of 10e-5 M; format: functional, Homo sapiens
[9] = system: SK-OV-3; test: In vitro cytotoxic activity against Ovarian (SK-OV3) cell line; format: functional; conditions: Homo sapiens
[10] = system: M14; test: In vitro cytotoxic activity against Melanoma (M14) cell line; format: functional; conditions: Homo sapiens
[11] = system: DU-145; test: In vitro cytotoxic activity against prostate (DU145) cell line; format: functional; conditions: Homo sapiens
[12] = system: SW-620; test: In vitro cytotoxic activity against colon (SW620) cell line; format: functional; conditions: Homo sapiens
[13] = system: NCI-H522; test: In vitro cytotoxic activity against lung (H522) cell line; conditions: Homo sapiens
[14] = system: MCF7; test: In vitro cytotoxic activity against breast (MCF-7/ADR) cell line; format: functional; conditions: Homo sapiens
[15] = system: A498; test: In vitro cytotoxic activity against renal (A498) cell line; format: functional; conditions: Homo sapiens
[16] = system: U-251; test: In vitro cytotoxic activity against CNS(U251) cell line; format: functional; conditions: Homo sapiens
[17] = system: NCI-H522; test: In vitro cytotoxic activity against lung (H522) cell line at a concentration of 10e-5 M

**Q.** For `CCCC(=O)O[C@@H]1CC2C(C)(C)C(=O)C=C[C@]2(C)C2CC[C@]3(C)C(=CC[C@H]3c3ccoc3)[C@@]21C` (some centres undefined), which Growth [1] is on record?
**A.** 59%

**Q.** And the Growth [2]?
**A.** 15%

**Q.** What about the Growth [3] of the same molecule?
**A.** 90%

**Q.** And the Growth [4]?
**A.** 49%

**Q.** And the Growth [5]?
**A.** 68%

**Q.** And the Growth [6]?
**A.** 57%

**Q.** What about the Growth [7] of the same molecule?
**A.** 40%

**Q.** And the Growth [8]?
**A.** 43%

**Q.** Which Growth [1] does the source give for `CC1(C)C(=O)C=C[C@@]2(C)C1C[C@@H](OC(=O)Nc1ccccc1)[C@@]1(C)C3=CC[C@@H](c4ccoc4)[C@]3(C)CCC21` (some centres undefined) here?
**A.** 74%

**Q.** What about the Growth [2] of the same molecule?
**A.** 71%

**Q.** What about the Growth [3] of the same molecule?
**A.** 100%

**Q.** What about the Growth [4] of the same molecule?
**A.** 64%

**Q.** What about the Growth [5] of the same molecule?
**A.** 76%

**Q.** And the Growth [6]?
**A.** 55%

**Q.** And the Growth [7]?
**A.** 51%

**Q.** And the Growth [8]?
**A.** 100%

**Q.** Which results are given for `CCOC1=C[C@@]2(C)C(C[C@@H](OC(C)=O)[C@@]3(C)C4=CC[C@@H](c5ccoc5)[C@]4(C)CCC23)C(C)(C)C1=O` (some centres undefined)?
**A.** GI50 [9]: 40 µM; Growth [1]: 40%; Growth [2]: 70%; Growth [3]: 61%; GI50 [10]: 20 µM; GI50 [11]: 50 µM; GI50 [12]: 5 µM; GI50 [13]: 30 µM; Growth [4]: 65%; Growth [5]: 35%; GI50 [14]: 8 µM; Growth [6]: 51%; Growth [7]: 52%; GI50 [15]: 40 µM; Growth [8]: 33%; GI50 [16]: 5 µM

**Q.** What does the source list for `CCN(CC)CCO/N=C1\C=C[C@@]2(C)C(C[C@@H](OC(C)=O)[C@@]3(C)C4=CC[C@@H](c5ccoc5)[C@]4(C)CCC23)C1(C)C` (some centres undefined)?
**A.** GI50 [9]: 3 µM; Growth [1]: 35%; Growth [2]: 5%; Growth [3]: 7%; GI50 [10]: 4 µM; GI50 [11]: 7 µM; GI50 [12]: 4 µM; GI50 [13]: 3 µM; Growth [4]: 23%; Growth [5]: 46%; GI50 [14]: 6 µM; Growth [6]: 28%; Growth [7]: 26%; GI50 [15]: 8 µM; Growth [8]: 7%; GI50 [16]: 4 µM

**Q.** For `CC1(C)C(=O)C=C[C@@]2(C)C1C[C@@H](O)[C@@]1(C)C3=CC[C@@H](c4ccoc4)[C@]3(C)CCC21` (some centres undefined), which GI50 [9] is on record?
**A.** > 100 µM

**Q.** What about the Growth [1] of the same molecule?
**A.** 15.8%

**Q.** And the Growth [2]?
**A.** 46%

**Q.** And the Growth [3]?
**A.** 64%

**Q.** What about the GI50 [10] of the same molecule?
**A.** 9 µM

**Q.** And the GI50 [11]?
**A.** 9.5 µM

**Q.** What about the GI50 [12] of the same molecule?
**A.** > 100 µM

**Q.** What about the GI50 [13] of the same molecule?
**A.** > 100 µM

**Q.** What about the Growth [4] of the same molecule?
**A.** 100%

**Q.** And the Growth [5]?
**A.** 46%

**Q.** And the GI50 [14]?
**A.** 5 µM

**Q.** And the Growth [6]?
**A.** 36%

**Q.** And the Growth [7]?
**A.** 100%

**Q.** What about the GI50 [15] of the same molecule?
**A.** > 100 µM

**Q.** And the Growth [8]?
**A.** 65%

**Q.** What about the GI50 [16] of the same molecule?
**A.** 3.5 µM

**Q.** `COC1=C[C@@]2(C)C(C[C@@H](OC(C)=O)[C@@]3(C)C4=CC[C@@H](c5ccoc5)[C@]4(C)CCC23)C(C)(C)C1=O` (some centres undefined) was tested. Which GI50 [9] did it give?
**A.** 35 µM

**Q.** And the Growth [1]?
**A.** 67%

**Q.** What about the Growth [2] of the same molecule?
**A.** 63%

**Q.** And the Growth [3]?
**A.** 38%

**Q.** And the GI50 [10]?
**A.** 40 µM

**Q.** What about the GI50 [11] of the same molecule?
**A.** 40 µM

**Q.** And the GI50 [12]?
**A.** 20 µM

**Q.** And the GI50 [13]?
**A.** 40 µM

**Q.** What about the Growth [4] of the same molecule?
**A.** 35%

**Q.** And the Growth [5]?
**A.** 47%

**Q.** What about the GI50 [14] of the same molecule?
**A.** 95 µM

**Q.** And the Growth [6]?
**A.** 58%

**Q.** And the Growth [7]?
**A.** 82%

**Q.** What about the GI50 [15] of the same molecule?
**A.** 40 µM

**Q.** And the Growth [8]?
**A.** 50%

**Q.** And the GI50 [16]?
**A.** 20 µM

**Q.** What does the source list for `CC1(C)C(=O)C=C[C@@]2(C)C1C[C@@H](OC(=O)/C=C\c1ccccc1)[C@@]1(C)C3=CC[C@@H](c4ccoc4)[C@]3(C)CCC21` (some centres undefined)?
**A.** Growth [1]: 41%; Growth [2]: 41%; Growth [3]: 86%; Growth [4]: 86%; Growth [5]: 81%; Growth [6]: 55%; Growth [7]: 69%; Growth [8]: 48%

**Q.** Which results are given for `CC1(C)C(=O)C=C[C@@]2(C)C1C[C@@H](OC(=O)CCl)[C@@]1(C)C3=CC[C@@H](c4ccoc4)[C@]3(C)CCC21` (some centres undefined)?
**A.** GI50 [9]: 5 µM; Growth [1]: -3%; Growth [2]: 22%; Growth [3]: 14%; GI50 [10]: 5 µM; GI50 [11]: 5 µM; GI50 [12]: 5 µM; GI50 [13]: 4 µM; Growth [4]: 12%; Growth [5]: 13%; GI50 [14]: 3 µM; Growth [6]: -2%; Growth [17]: 5%; GI50 [15]: 4 µM; Growth [8]: -8%; GI50 [16]: 6 µM
